Laboratory results as given in US20200171030A1, “DUAL INHIBITORS OF ALK5 AND P38A MAP KINASE” (INTEGRAL BIOSCIENCES PRIVATE LIMITED, priority 2018, published 2020).
Structures can show the parent of a compound that is named as a salt. Where two headings read alike, the source gives them in different places.

Legend:
[1] = molecular target: T1, TGFBR1 (ALK5) (Homo sapiens, UniProt P36897); test: ALK5 kinase assay (LanthaScreen Terbium labeled TR-FRET); assay type: biochemical; conditions: for inhibition at 0.1 µM: 100 nM concentration of compound, read-out: Enzyme Activity TGFBR1 (ALK5) % Inhibition at 100 nM
T1 sequence (P36897 34-503): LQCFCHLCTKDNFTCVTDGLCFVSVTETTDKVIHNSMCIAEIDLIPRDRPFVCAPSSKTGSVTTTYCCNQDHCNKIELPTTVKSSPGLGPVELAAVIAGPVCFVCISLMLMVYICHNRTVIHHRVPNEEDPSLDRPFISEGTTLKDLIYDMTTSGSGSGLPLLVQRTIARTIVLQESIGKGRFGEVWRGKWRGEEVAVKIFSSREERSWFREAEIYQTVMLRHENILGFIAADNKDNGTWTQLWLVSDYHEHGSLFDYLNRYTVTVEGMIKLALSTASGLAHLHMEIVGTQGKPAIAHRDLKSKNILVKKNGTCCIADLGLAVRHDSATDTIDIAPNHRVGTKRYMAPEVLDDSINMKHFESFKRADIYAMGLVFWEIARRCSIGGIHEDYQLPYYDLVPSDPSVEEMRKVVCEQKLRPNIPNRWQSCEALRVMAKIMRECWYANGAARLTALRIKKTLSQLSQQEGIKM
Method: ALK5 Kinase Assay for IC50 Determination:
IC50 values of compounds against TGFβ kinase was determined by LanthaScreen™ Terbium Labeled TR-FRET assay. Kinase assays were performed in IX kinase buffer (# PV6135, Invitrogen, Life Technologies Grand Island, N.Y.) where total reaction volume was 10 μL in low-volume 384-well plates (#4511,Corning). Serially diluted compounds (3-fold) were incubated with TGFβ kinase (6 nM) for 10 min, following which a mixture of ATP (10 μM) (# A1852, Sigma, St-Louis, Mo.) and fluorescent-PolyGT substrate (200 nM) (# PV3610, Invitrogen, Life Technologies Grand Island, N.Y.) was added and incubated in dark at room temperature for 1 h. After 1 h, 10 μL stop solution containing Terbium labeled antibody (4 nM) (# PV3529, Invitrogen, Life Technologies Grand Island, N.Y.) and EDTA (# E5134, Sigma, St-Louis, Mo.) (20 mM) in TR-FRET dilution buffer (# PV3574, Invitrogen, Life Technologies Grand Island, N.Y.) was added. Readings were taken in a Synergy Neo Plate reader (BioTek, Winooski) at single excitation of 340 nm and Dual emission at 495 nm and 520 nm respectively.
The % activity of test samples was calculated as (Sample−Min)×100/(Max−Min). [Max: DMSO control, complete reaction with enzyme with DMSO and Min: No enzyme with DMSO]. Percent inhibition (100-% activity) was fitted to the “four-parameter logistic model” in XLfit for determination of IC50 values.

[2] = molecular target: T2, MAPK14/p38α kinase (Homo sapiens, UniProt Q16539); test: MAPK14/p38α kinase assay (LanthaScreen TR-FRET); assay type: biochemical; conditions: for inhibition at 0.1 µM: 100 nM concentration of compound; for IC50: Table 3, read-out: IC50 (P38 alpha)
T2 construct: purchased ThermoFisher PV3304
T2 sequence (Q16539 whole entry): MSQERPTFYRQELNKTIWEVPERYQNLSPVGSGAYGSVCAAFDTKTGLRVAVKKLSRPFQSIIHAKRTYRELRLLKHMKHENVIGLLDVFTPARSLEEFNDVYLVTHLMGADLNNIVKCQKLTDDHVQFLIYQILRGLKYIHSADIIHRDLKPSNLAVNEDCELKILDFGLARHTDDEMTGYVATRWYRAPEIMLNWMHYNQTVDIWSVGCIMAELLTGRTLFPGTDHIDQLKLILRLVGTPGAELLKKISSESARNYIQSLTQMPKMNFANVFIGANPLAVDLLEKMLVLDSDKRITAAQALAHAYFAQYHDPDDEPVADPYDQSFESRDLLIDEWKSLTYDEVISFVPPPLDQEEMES
Method: MAPK14/p38α Kinase Assay for IC50 Determination:
IC50 values of compounds against MAPK14/P38α kinase were determined by Lanthascreen based TR-FRET assay. Kinase reactions were performed in a 10 μL volume in low-volume 384-well plates. The concentration of substrate was maintained at 400 nM in the assay, and the kinase reaction buffer (1×; Cat # PV3189, ThermoFisher) consisted of 50 mM HEPES pH 7.5, 0.01% BRIJ-35, 10 mM MgCl2, and 1 mM EGTA. Serially diluted compounds (3-fold) in DMSO (0.5% in final reaction) were incubated with cocktail of MAPK14/p38α kinase (20 ng/ml; Cat # PV3304, ThermoFisher), Substrate GFP-ATF2 (19-96), (0.4 μM; Cat # PV4445, ThermoFisher), ATP (90 μM; Cat # PV3227, ThermoFisher) and buffer. Kinase reactions were allowed to proceed for 1 hour at room temperature before EDTA (10 mM; Cat # P2825, ThermoFisher) and LanthaScreen™ Tb-antipATF2 (pThr71) Antibody (2 nM; Cat # PV4451, ThermoFisher) in TR-FRET dilution buffer (IX; Cat # PV3574, ThermoFisher) were added. The plate was allowed to incubate at room temperature for 30 minutes before being read on a BMG Pherastar plate reader using the LanthaScreen™ filter block for LanthaScreen™ TR-FRET.
The resulting TR-FRET emission ratio was plotted against the concentration of inhibitor, and the data was fit to a sigmoidal dose-response curve with a variable slope. The IC50 for the inhibitor was calculated from the curve.

[3] = system: Panc-1; test: Cell viability assay (resazurin, 96 hr) in Panc-1; assay type: cell-based; conditions: Homo sapiens; Panc-1 pancreatic cell line, 96 hr exposure; read-out: Panc-1_Cell Viability_IC50
Method: (§1) Cell Viability Assay in MIA PaCa-2 and Panc-1
(§2) MIA PaCa-2 (ATCC® CRL-1420™) and Panc-1 (CRL-1469™), both pancreatic cell lines were seeded in their respective medium (DMEM, Cat #10569044 with 10% FBS, Cat #16000044; Gibco for Panc-1 and an additional 2.5% Horse Serum, Cat #16050122; Gibco for MIA PaCa-2) at a cell count of 3000 cells per 100 μl per well in a 96 well edge plate (167425; ThermoFisher). Cells were allowed to grow at 37° C. for 24 hr in 5% CO2 (culture conditions) in a Nuaire incubator (humidified). Serially diluted compounds (100 μl) were added to the culture plate 24 hr later and the cultures (MIA PaCa-2 and Panc-1) were further incubated in culture conditions for 96 hr. Experiment was terminated at the completion of 96 hr exposure to the drug by replacing the medium with 100 μl of 1 mM of resazurin (R7017; Sigma) prepared in culture medium and the plates were further incubated in culture conditions for 4 hr. Fluorescence was then measured using a multimodal plate reader (Biotek Synergy Neo) at an excitation wavelength of 535 nm and emission wavelength of 590 nm to obtain relative fluorescence units. Data analysis was done by subtracting the background fluorescence (only medium blank) value from each reading and then normalizing with the vehicle control (DMSO treated cells) to obtain percent survival/proliferation. Percent survival at different doses was used to calculate IC50 by fitting the curve to the “four-parameter variable slope logistic model” using Prism Graph Pad.

[4] = system: MIA PaCa-2; test: Cell viability assay (resazurin, 96 hr) in MIA PaCa-2; assay type: cell-based; conditions: Homo sapiens; MIA PaCa-2 pancreatic cell line, 96 hr exposure; read-out: MiaPaCa-2_Cell Viability_IC50
Method: as §1, §2

[5] = Table 4, read-out: Enzyme Activity MAPK14 (p38alpha) % Inh at 100 nM
[6] = read-out: Enzyme Activity MAPK14 (p38 alpha) % Inhibition at 100 nM

Row | Structure (SMILES) | IC50 ([1]; Table 4, read-out: ALK5 IC50) | inhibition at 0.1 µM [2, 5] | IC50 [3] | IC50 [4] | inhibition at 0.1 µM [1] | inhibition at 0.1 µM [2, 6] | IC50 ([1]; Table 3, read-out: IC50 (ALK5)) | IC50 [2]
1 | CC(C)c1cnc(-c2ccc(F)cc2)nc1Nc1ccnc2[nH]cc(N3CCNC(=O)C3)c12 [Compound No. 10, 4-(4-(2-(4-fluorophenyl)-5-isopropylpyrimidin-4-ylamino)-1H-pyrrolo [2,3-b]pyridin-3-yl) piperazin-2-one formate] | 303 nM | 28% | 2730 nM | 3460 nM |  |  |  | 
2 | CC(C)c1cnc(-c2ccc(F)cc2)nc1Nc1ccnc2[nH]cc(-n3cncn3)c12 [Compound No. 6, N-(2-(4-fluorophenyl)-5-isopropylpyrimidin-4-yl)-3-(1H-1,2,4-triazol-1-yl)-1H-pyrrolo [2,3-b] pyridin-4-amine hydrochloride] |  |  | 645 nM | 655 nM | 97% | 0% |  | 
3 | CC(C)c1cnc(-c2ccc(F)cc2)nc1Nc1ccnc2[nH]cc(N3CCCCC3)c12 [Compound No. 3, N-(2-(4-fluorophenyl)-5-isopropylpyrimidin-4-yl)-3-(piperidin-1-yl)-1H-pyrrolo [2,3-b] pyridin-4-amine hydrochloride] |  |  | > 27000 nM | > 30000 nM | 72% | 42% |  | 
4 | CC(C)c1cnc(-c2ccc(F)cc2)nc1Nc1ccnc2[nH]cc(C(=O)C(=O)N3CCNCC3)c12 [Compound No. 23, 1-(4-(2-(4-fluorophenyl)-5-isopropylpyrimidin-4-ylamino)-1H-pyrrolo [2,3-b]pyridin-3-yl)-2-(piperazin-1-yl) ethane-1,2-dione hydrochloride] |  |  | 5850 nM | 1140 nM |  |  | 671 nM | 1300 nM
5 | CC(C)c1cnc(-c2ccc(F)cc2)nc1Nc1ccnc2[nH]cc(N3CCNCC3C)c12 (centres unmarked) [Compound No. 4, N-(2-(4-fluorophenyl)-5-isopropylpyrimidin-4-yl)-3-(2-methylpiperazin-1-yl)-1H-pyrrolo[2,3-b]pyridin-4-amine hydrochloride] |  |  | 1880 nM | 1540 nM | 94% | 72% |  | 
6 | CC(C)c1cnc(-c2ccc(F)cc2)nc1Nc1ccnc2[nH]cc(C(=O)C(N)=O)c12 [Compound No. 17, 2-(4-((2-(4-fluorophenyl)-5-isopropylpyrimidin-4-yl)amino)-1H-pyrrolo[2,3-b]pyridin-3-yl)-2-oxoacetamide hydrochloride] |  |  | > 30000 nM | 765 nM |  |  | > 5000 nM | 309 nM
7 | CC(C)c1ccc(-c2ccc(F)cc2)nc1Nc1ccnc2[nH]cc(C(=O)C(N)=O)c12 [Compound No. 27, 2-(4-(6-(4-fluorophenyl)-3-isopropylpyridin-2-ylamino)-1H-pyrrolo [2,3-b]pyridin-3-yl)-2-oxoacetamide hydrochloride] | > 5000 nM | 0% | > 30000 nM | > 30000 nM |  |  |  | 
8 | CC(C)c1cnc(-c2ccc(F)cc2)cc1Nc1ccnc2[nH]cc(C(=O)C(N)=O)c12 [Compound No. 19, 2-(4-((2-(4-fluorophenyl)-5-isopropylpyridin-4-yl)amino)-1H-pyrrolo[2,3-b]pyridin-3-yl)-2-oxoacetamide hydrochloride] |  |  | 23200 nM | 15500 nM |  |  | 278 nM | 1760 nM
9 | CC(C)c1cnc(-c2ccc(F)cc2)nc1Nc1ccnc2[nH]cc(N3CCNC[C@@H]3C)c12 [Compound No. 7, N-(2-(4-fluorophenyl)-5-isopropylpyrimidin-4-yl)-3-(2-methylpiperazin-1-yl)-1H-pyrrolo [2,3-b] pyridin-4-amine hydrochloride] |  |  | 2700 nM | 2440 nM |  |  | 155 nM | 42 nM
10 | CC(C)c1cnc(-c2ccc(F)cc2)nc1Nc1ccnc2[nH]cc(N3CCN[C@@H](C)C3)c12 [Compound No. 11, (S)—N-(2-(4-fluorophenyl)-5-isopropylpyrimidin-4-yl)-3-(3-methylpiperazin-1-yl)-1H-pyrrolo[2,3-b]pyridin-4-amine hydrochloride] | 147 nM | 18% | 2820 nM | 2040 nM |  |  |  | 
11 | CC(C)c1cnc(-c2ccc(F)cc2)nc1Nc1ccnc2[nH]cc(N3CCOCC3)c12 [Compound No. 5, N-(2-(4-fluorophenyl)-5-isopropylpyrimidin-4-yl)-3-morpholino-1H-pyrrolo [2,3-b] pyridin-4-amine hydrochloride] |  |  | > 30000 nM | > 30000 nM | 88% | 7% |  | 
12 | CC(C)c1cnc(-c2ccc(F)cc2)nc1Nc1ccnc2[nH]cc(N3CCNCC3)c12 [Compound No. 1, N-(2-(4-fluorophenyl)-5-isopropylpyrimidin-4-yl)-3-(piperazin-1-yl)-1H-pyrrolo [2,3-b] pyridin-4-amine hydrochloride] |  |  | 2310 nM | 1630 nM | 99% | 61% |  | 
13 | CC(C)c1cnc(-c2ccc(F)cc2)nc1Nc1ccnc2[nH]cc(N3CCNC[C@H]3C)c12 [Compound No. 8, N-(2-(4-fluorophenyl)-5-isopropylpyrimidin-4-yl)-3-(2-methylpiperazin-1-yl)-1H-pyrrolo [2,3-b] pyridin-4-amine hydrochloride] |  |  | > 30000 nM | > 30000 nM |  |  | 95 nM | 61 nM
14 | CC(C)c1cnc(-c2ccccc2)nc1Nc1ccnc2[nH]cc(C(=O)C(N)=O)c12 [Compound No. 26, 2-(4-((5-isopropyl-2-phenylpyrimidin-4-yl)amino)-1H-pyrrolo[2,3-b]pyridin-3-yl)-2-oxoacetamide hydrochloride] |  |  | > 30000 nM | 2200 nM |  |  | 602 nM | 244 nM
